# Source: US20250296960A1, “PEPTIDE COMPOSITIONS AND METHODS OF USE THEREOF” (priority 2022, published 2025)
# Like-named read-outs stand apart in the source and are kept apart here. Numbered stars: 1 amine (or outer) side, 2 acyl side, 3 side chain; on linkers, the order of the positions; unused ones are H or OH. Square brackets hold non-standard residues; d marks the D form. Side chains are listed from the residue outwards. Peptide text beside a SMILES is read from it. * marks the point of attachment. Biotin = O=C1N[C@H]2[C@H](CS[C@H]2CCCCC(=O)*)N1; C18 diacid = O=C(O)CCCCCCCCCCCCCCCCC(=O)*; γGlu = O=C(O)[C@H](CCC(=O)[*:2])N[*:1]; AEEA = NCCOCCOCC(=O)O; Aib = CC(C)(N)C(=O)O
# Legend:
# human GLP-1R = target: T1, human GLP-1R (Homo sapiens, UniProt P43220); assay: cAMP assay (HitHunter cAMP) in GLP-1R-expressing CHO-K1 cells (GLP-1R+ cells); type: cell-based
# T1 construct: host or cells: CHO-K1
# In short: (§1)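 CHO-K1 cells expressing each receptor were plated overnight, then treated with peptide in cAMP assay buffer for 30 min at 37 °C. cAMP was detected by antibody plus detection solution (1 h) and Solution A (3 h), both at room temperature in the dark. Luminescence was the read-out.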
# human GCGR = target: T2, human GCGR (Homo sapiens, UniProt P47871); assay: cAMP assay (HitHunter cAMP) in GCGR-expressing CHO-K1 cells (GCGR+ cells); type: cell-based
# T2 construct: host or cells: CHO-K1
# In short: as §1
# human GIPR = target: T3, human GIPR (Homo sapiens, UniProt P48546); assay: cAMP assay (HitHunter cAMP) in GIPR-expressing CHO-K1 cells (GIPR+ cells); type: cell-based
# T3 construct: host or cells: CHO-K1
# T3 sequence (P48546 22-466): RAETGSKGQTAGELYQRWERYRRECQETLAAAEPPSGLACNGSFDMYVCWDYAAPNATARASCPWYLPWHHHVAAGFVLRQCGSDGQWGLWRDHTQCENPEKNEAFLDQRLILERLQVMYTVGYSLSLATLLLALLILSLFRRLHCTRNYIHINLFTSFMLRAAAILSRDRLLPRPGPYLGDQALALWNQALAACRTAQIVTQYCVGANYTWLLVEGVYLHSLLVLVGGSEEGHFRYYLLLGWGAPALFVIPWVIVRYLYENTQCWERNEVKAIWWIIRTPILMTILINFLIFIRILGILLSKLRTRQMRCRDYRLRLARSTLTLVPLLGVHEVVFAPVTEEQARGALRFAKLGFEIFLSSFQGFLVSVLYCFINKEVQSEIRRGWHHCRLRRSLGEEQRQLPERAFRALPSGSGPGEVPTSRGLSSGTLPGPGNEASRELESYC
# In short: as §1
# [1] = In vitro enzymatic stability against FaSSIF/P (pancreatin in FaSSIF, pH 6.5); type: in vitro ADME; details: simulated gi fluid
# Method: (§2) This study was conducted to determine the enzymatic stability of SEQ ID NOs. 77, 86, 87, 89, 90, and 91 after biotinylation in artificial intestinal environment. The test samples were prepared by mixing stock solutions of peptide and pancreatin dissolved in FaSSIF solution (pH 6.5) in a weight ratio of 25:1. The test samples were incubated at 37° C. for 120 min. The sampling from test samples was proceeded at the predetermined time points (10, 30, 60, and 120 min) and stopped by 10% TFA solution.
# (§3) Analytical HPLC was performed to determine the remaining amount on an ACQUITY Premier system (Waters, USA) with an ACQUITY CSH C18 column (Waters, USA) at 35° C. using 0.1% TFA in water and acetonitrile. The remaining amount was determined as a percentage of the peak area at the sampling time point relative to the peak area of the initial sample.
# (§4) For the stability against FaSSIF/P, the test samples were prepared by mixing stock solutions of peptide and pancreatin dissolved in FaSSIF solution (pH 6.5) in a weight ratio of 19:1. The test samples were incubated at 37° C. for 120 min. The sampling from test samples was proceeded at the predetermined time points (10, 30, 60, and 120 min) and stopped by 10% TFA solution.
# [2] = type: in vitro ADME; details: pH 7.8
# Method: (§5) For the stability against trypsin, the test samples were prepared by mixing stock solutions of peptide and trypsin dissolved in 50 mM PBS (pH 7.8) containing 0.02% PS80 in a weight ratio of 10:1. The test samples were incubated at 37° C. for 180 min. The sampling from test samples was proceeded at the predetermined time points (10, 30, 60, 90, 120, and 180 min) and stopped by 10% TFA solution.
# as §3
# trypsin = type: in vitro ADME
# Method: as §5, §3
# [3] = Body weight loss in high fat diet (HFD) mice, 2 weeks; type: in vivo; details: 20 nmol/kg s.c. Q2D
# Method: This study was conducted to confirm the body weight loss effect and select the peptides to be evaluated in high fat diet (HFD) treated mouse, which is widely used as experimental animal model in obesity and diabetes studies. SEQ ID NOs. The peptides were delivered at 0.02% PS80 in PBS and dosing volume was 10 mL/kg. Body weight changes, blood glucose, and food intake were monitored Q2D. Animals were fasted at least 4 hours prior to blood glucose measurement.
# FaSSIF/P = assay: In vitro enzymatic stability against FaSSIF/P (pancreatin in FaSSIF, pH 6.5); type: in vitro ADME
# Method: as §2, §3, §4
# [4] = In vivo efficacy in mAMLN (obese and NASH) mice, 4 weeks; details: after 4 weeks
# [5] = Intestinal absorption / PK after intraduodenal administration of oral formulation in rats, serum LC-MS/MS; details: rat, in vivo
# T1 sequence (P43220 24-463): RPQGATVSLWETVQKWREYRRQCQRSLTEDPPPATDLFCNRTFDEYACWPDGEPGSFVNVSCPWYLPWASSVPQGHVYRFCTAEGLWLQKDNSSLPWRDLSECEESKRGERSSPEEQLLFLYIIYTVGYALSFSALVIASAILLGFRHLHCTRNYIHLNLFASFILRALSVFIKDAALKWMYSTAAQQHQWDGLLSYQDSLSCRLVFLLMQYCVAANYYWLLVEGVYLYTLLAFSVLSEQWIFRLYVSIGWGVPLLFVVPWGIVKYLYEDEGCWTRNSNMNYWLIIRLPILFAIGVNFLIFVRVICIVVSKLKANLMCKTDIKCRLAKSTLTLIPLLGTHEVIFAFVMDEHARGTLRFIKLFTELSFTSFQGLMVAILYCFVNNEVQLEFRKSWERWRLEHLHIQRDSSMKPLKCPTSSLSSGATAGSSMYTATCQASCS
# T2 sequence (P47871 26-477): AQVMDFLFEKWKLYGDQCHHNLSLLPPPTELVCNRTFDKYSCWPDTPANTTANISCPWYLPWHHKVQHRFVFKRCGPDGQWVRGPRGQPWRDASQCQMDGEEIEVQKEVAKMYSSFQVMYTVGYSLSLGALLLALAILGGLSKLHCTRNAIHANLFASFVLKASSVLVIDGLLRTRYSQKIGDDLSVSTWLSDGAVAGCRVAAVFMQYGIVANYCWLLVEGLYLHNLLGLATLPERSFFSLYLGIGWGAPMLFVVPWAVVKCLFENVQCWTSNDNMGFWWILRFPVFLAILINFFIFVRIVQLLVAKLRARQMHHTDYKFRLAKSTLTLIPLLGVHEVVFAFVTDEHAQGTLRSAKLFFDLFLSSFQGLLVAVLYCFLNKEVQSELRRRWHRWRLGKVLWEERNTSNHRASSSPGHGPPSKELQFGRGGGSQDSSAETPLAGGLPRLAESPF
smiles,measurement,setting,value
CSCC[C@H](NC(=O)[C@H](Cc1ccc(O)cc1)NC(=O)[C@H](CC(=O)O)NC(=O)[C@H](CC(C)C)NC(=O)[C@H](CC(C)C)NC(=O)[C@H](CCCCNC(=O)COCCOCCNC(=O)COCCOCCNC(=O)CC[C@H](NC(=O)CCCCCCCCCCCCCCCCC(=O)O)C(=O)O)NC(=O)[C@H](CO)NC(=O)[C@H](Cc1ccc(O)cc1)NC(=O)[C@H](CC(=O)O)NC(=O)[C@H](CO)NC(=O)[C@@H](NC(=O)[C@H](Cc1ccccc1)NC(=O)[C@@H](NC(=O)CNC(=O)[C@H](CCC(N)=O)NC(=O)C(C)(C)NC(=O)[C@@H](N)Cc1ccc(O)cc1)[C@@H](C)O)[C@@H](C)O)C(=O)N[C@@H](CCSC)C(=O)N[C@@H](CCC(N)=O)C(=O)N[C@@H](Cc1c[nH]cn1)C(=O)N[C@@H](CC(=O)O)C(=O)N[C@@H](Cc1ccccc1)C(=O)N[C@H](C(=O)N[C@@H](CCC(N)=O)C(=O)N[C@@H](Cc1c[nH]c2ccccc12)C(=O)N[C@@H](CC(C)C)C(=O)N[C@@H](CC(C)C)C(=O)N[C@@H](CCC(=O)O)C(=O)NCC(=O)NCC(=O)N1CCC[C@H]1C(=O)N[C@@H](CO)C(=O)N[C@@H](CO)C(=O)NCC(=O)N[C@@H](C)C(=O)N1CCC[C@H]1C(=O)N1CCC[C@H]1C(=O)N1CCC[C@H]1C(=O)N[C@@H](CO)C(N)=O)C(C)C [compound 99] (H-Y[Aib]QGTFTSDYSK([AEEA-AEEA-γGlu-C18 diacid])LLDYMMQHDFVQWLLEGGPSSGAPPPS-NH2; N-terminus assumed),"activity on GLP-1R compared to SEQ ID NO. 77, in words",human GLP-1R; Example 13,slightly decreased
same,"Ratio vs. GLP-1R, GLP-1R",human GLP-1R; Table 36,100
same,"Relative % to native ligand, GLP-1R",human GLP-1R; Table 36,35%
same,"Ratio vs. GLP-1R, GCGR",human GCGR; Table 36,80
same,"Relative % to native ligand, GCGR",human GCGR; Table 36,28%
same,"Ratio vs. GLP-1R, GIPR",human GIPR; Table 36,3237
same,"Relative % to native ligand, GIPR",human GIPR; Table 36,1132%
same,half-life,"[1]; pH 6.5, Half-life (min), FaSSIF/P",37.9 min
same,half-life,[2],> 434 min
same,"stability against trypsin compared with SEQ ID NO. 77, in words",trypsin,increased half-lives
CSCC[C@H](NC(=O)[C@H](Cc1ccc(O)cc1)NC(=O)[C@H](CC(=O)O)NC(=O)[C@H](CC(C)C)NC(=O)[C@H](CC(C)C)NC(=O)[C@H](CCCCNC(=O)COCCOCCNC(=O)COCCOCCNC(=O)CC[C@H](NC(=O)CCCCCCCCCCCCCCCCC(=O)O)C(=O)O)NC(=O)[C@H](CO)NC(=O)[C@H](Cc1ccc(O)cc1)NC(=O)[C@H](CC(=O)O)NC(=O)[C@H](CO)NC(=O)[C@@H](NC(=O)[C@H](Cc1ccccc1)NC(=O)[C@@H](NC(=O)CNC(=O)[C@H](CCC(N)=O)NC(=O)C(C)(C)NC(=O)[C@@H](N)Cc1ccc(O)cc1)[C@@H](C)O)[C@@H](C)O)C(=O)N[C@@H](CCSC)C(=O)N[C@@H](CCC(N)=O)C(=O)N[C@@H](CCCNC(=N)N)C(=O)N[C@@H](CC(=O)O)C(=O)N[C@@H](Cc1ccccc1)C(=O)N[C@H](C(=O)N[C@@H](CCCCNC(=O)CCCC[C@@H]1SC[C@@H]2NC(=O)N[C@@H]21)C(=O)N[C@@H](Cc1c[nH]c2ccccc12)C(=O)N[C@@H](CC(C)C)C(=O)N[C@@H](CC(C)C)C(=O)N[C@@H](CCC(=O)O)C(=O)NCC(=O)NCC(=O)N1CCC[C@H]1C(=O)N[C@@H](CO)C(=O)N[C@@H](CO)C(=O)NCC(=O)N[C@@H](C)C(=O)N1CCC[C@H]1C(=O)N1CCC[C@H]1C(=O)N1CCC[C@H]1C(=O)N[C@@H](CO)C(N)=O)C(C)C [compound 89] (H-Y[Aib]QGTFTSDYSK([AEEA-AEEA-γGlu-C18 diacid])LLDYMMQRDFVK(Biotin)WLLEGGPSSGAPPPS-NH2; N-terminus and C-terminus assumed),"Ratio vs. GLP-1R, GLP-1R",human GLP-1R; Table 31,100
same,"Relative % to native ligand, GLP-1R",human GLP-1R; Table 31,38%
same,"Ratio vs. GLP-1R, GCGR",human GCGR; Table 31,117
same,"Relative % to native ligand, GCGR",human GCGR; Table 31,45%
same,"Ratio vs. GLP-1R, GIPR",human GIPR; Table 31,399
same,"Relative % to native ligand, GIPR",human GIPR; Table 31,154%
same,"body weight loss effect compared to SEQ ID NO. 77, in words",[3],comparable to SEQ ID NO. 77
same,half-life,"[1]; pH 6.5, Table 33, peptide:pancreatin weight ratio 25:1, FaSSIF pH 6.5, 37° C., read-out: Half-life",43 min
same,"intestinal stability in FaSSIF/P compared with SEQ ID NO. 77, in words",FaSSIF/P; Example 11,not inferior to that of SEQ ID No. 77
same,"hepatic steatosis (histological score), in words",[4],significantly reduced
same,AUC(0-inf),"[5]; rats, single intraduodenal (ID) administration, read-out: AUCinf",2790 ng·h/mL
same,Cmax,"[5]; rats, single intraduodenal (ID) administration, read-out: mean Cmax",332 ng/mL
same,half-life,"[5]; rats, single intraduodenal (ID) administration, read-out: t1/2 (converted)",434 min
CSCC[C@H](NC(=O)[C@H](Cc1ccc(O)cc1)NC(=O)[C@H](CC(=O)O)NC(=O)[C@H](CC(C)C)NC(=O)[C@H](CC(C)C)NC(=O)[C@H](CCCCNC(=O)COCCOCCNC(=O)COCCOCCNC(=O)CC[C@H](NC(=O)CCCCCCCCCCCCCCCCC(=O)O)C(=O)O)NC(=O)[C@H](CO)NC(=O)[C@H](Cc1ccc(O)cc1)NC(=O)[C@H](CC(=O)O)NC(=O)[C@H](CO)NC(=O)[C@@H](NC(=O)[C@H](Cc1ccccc1)NC(=O)[C@@H](NC(=O)CNC(=O)[C@H](CCC(N)=O)NC(=O)C(C)(C)NC(=O)[C@@H](N)Cc1ccc(O)cc1)[C@@H](C)O)[C@@H](C)O)C(=O)N[C@@H](CCSC)C(=O)N[C@@H](CCC(N)=O)C(=O)N[C@@H](CCCNC(=N)N)C(=O)N[C@@H](CC(=O)O)C(=O)N[C@@H](Cc1ccccc1)C(=O)N[C@H](C(=O)N[C@@H](CCC(N)=O)C(=O)N[C@@H](Cc1c[nH]c2ccccc12)C(=O)N[C@@H](CC(C)C)C(=O)N[C@@H](CC(C)C)C(=O)N[C@@H](CCC(=O)O)C(=O)NCC(=O)NCC(=O)N1CCC[C@H]1C(=O)N[C@@H](CO)C(=O)N[C@@H](CO)C(=O)NCC(=O)N[C@@H](C)C(=O)N1CCC[C@H]1C(=O)N1CCC[C@H]1C(=O)N1CCC[C@H]1C(=O)N[C@@H](CO)C(=O)N[C@@H](CCCCNC(=O)CCCC[C@@H]1SC[C@@H]2NC(=O)N[C@@H]21)C(N)=O)C(C)C [compound 90] (H-Y[Aib]QGTFTSDYSK([AEEA-AEEA-γGlu-C18 diacid])LLDYMMQRDFVQWLLEGGPSSGAPPPSK(Biotin)-NH2; N-terminus and C-terminus assumed),"Ratio vs. GLP-1R, GLP-1R",human GLP-1R; Table 31,100
same,"Relative % to native ligand, GLP-1R",human GLP-1R; Table 31,50%
same,"Ratio vs. GLP-1R, GCGR",human GCGR; Table 31,39
same,"Relative % to native ligand, GCGR",human GCGR; Table 31,19%
same,"Ratio vs. GLP-1R, GIPR",human GIPR; Table 31,311
same,"Relative % to native ligand, GIPR",human GIPR; Table 31,154%
same,"body weight loss effect compared to SEQ ID NO. 77, in words",[3],comparable to SEQ ID NO. 77
same,half-life,"[1]; pH 6.5, Half-life (min)",42.1 min
same,"intestinal stability in FaSSIF/P compared with SEQ ID NO. 77, in words",FaSSIF/P,not inferior to that of SEQ ID No. 77
same,AUC(0-inf),[5],2490 ng·h/mL
same,Cmax,[5],282 ng/mL
same,half-life,[5],502 min
same,time at which Cmax was reached,[5],0.30 h
